Assay results published in patent US20190192517A1, “TREATMENT OF SQUAMOUS CELL CARCINOMAS WITH INHIBITORS OF ERK” (Kura Oncology, Inc., priority 2016, published 2019).

Biological target: T1, ERK2 enzyme (Homo sapiens, UniProt P28482)
T1 construct: purchased Life Technologies
Test: Inhibition assay of ERK (Z'-LYTE kinase assay, Ser/Thr 3 peptide, 100 μM ATP)
Assay type: biochemical
Conditions: in vitro
Protocol: Example 9: Inhibition Assays of ERK. The inhibition of ERK activity by the compounds disclosed herein was determined using the Z′-LYTE kinase assay kit (Life Technologies) with a Ser/Thr 3 peptide substrate (Life Technologies) according to manufacturer's instructions. […] The IC50 values for the compounds were determined with 3-fold serial dilutions in duplicate. The compounds were first diluted in 1:3 dilutions in 100% DMSO at 100× the desired concentration, and then further diluted (1:25) in 20 mM HEPES buffer (Invitrogen) to make 4× solutions prior to adding to the enzyme solution. The final DMSO concentration in the assay was 1%. Final reaction volume was […] in 384-well plates. Kinase reactions were conducted for 1 hour followed by the assay development reaction (1 hour) in a 384 well plate format (20 μL/well).

T1 sequence (P28482 whole entry): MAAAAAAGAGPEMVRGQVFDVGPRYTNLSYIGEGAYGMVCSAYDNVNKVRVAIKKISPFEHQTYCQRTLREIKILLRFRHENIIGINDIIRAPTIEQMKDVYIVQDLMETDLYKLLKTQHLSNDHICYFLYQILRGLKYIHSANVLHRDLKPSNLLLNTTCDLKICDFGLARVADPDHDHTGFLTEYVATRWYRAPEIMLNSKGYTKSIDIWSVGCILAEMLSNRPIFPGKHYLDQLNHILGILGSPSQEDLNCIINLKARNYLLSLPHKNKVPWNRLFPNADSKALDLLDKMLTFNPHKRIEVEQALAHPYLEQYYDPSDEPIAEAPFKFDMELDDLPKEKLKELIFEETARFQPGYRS

IC50, < 500 nM:
Cc1cc(-c2n[nH]c3cc4c(cc23)CN([C@H]2CN(Cc3ccccc3)CC(F)(F)C2)C(=O)N4)ccn1 [Compound 264]
Cc1cc(-c2n[nH]c3cc4c(cc23)CN([C@@H]2CCN(C(C)C(F)(F)F)C2)C(=O)N4)ccn1 (stereo partly drawn) [Compound 267]
C=C(c1ccccc1)c1cc2cc3c(-c4ccnc(C)c4)n[nH]c3cc2[nH]c1=O [Compound 269]
COc1cc(-c2n[nH]c3cc4c(cc23)CN([C@@H]2CCCN(Cc3ccccc3)C2)C(=O)N4)ccn1 [Compound 270]
COc1cc(-c2n[nH]c3cc4c(cc23)CN([C@@H]2CCCN(Cc3ccc(F)cc3F)C2)C(=O)N4)ccn1 [Compound 271]
COc1ccc(-c2n[nH]c3cc4c(cc23)CN([C@@H]2CCCN(Cc3ccccc3)C2)C(=O)N4)cn1 [Compound 272]
COc1ccc(-c2n[nH]c3cc4c(cc23)CN([C@@H]2CCCN(Cc3ccc(F)cc3F)C2)C(=O)N4)cn1 [Compound 273]
Cc1ccc(-c2n[nH]c3cc4c(cc23)CN([C@@H]2CCCN(Cc3ccccc3)C2)C(=O)N4)cn1 [Compound 275]
COc1ncc(-c2n[nH]c3cc4c(cc23)CN([C@@H]2CCCN(Cc3ccc(F)cc3F)C2)C(=O)N4)cn1 [Compound 280]
Cn1ccc(-c2n[nH]c3cc4c(cc23)CN([C@@H]2CCCN(Cc3ccc(F)cc3F)C2)C(=O)N4)c1 [Compound 281]
Cc1ccc(-c2n[nH]c3cc4c(cc23)CN([C@@H]2CCCN(Cc3ccc(F)cc3F)C2)C(=O)N4)cn1 [Compound 284]
Cn1cc(-c2n[nH]c3cc4c(cc23)CN([C@@H]2CCCN(Cc3ccccc3)C2)C(=O)N4)cn1 [Compound 285]
Cc1cc(-c2n[nH]c3cc4[nH]c(=O)c([C@H](C)c5ccc(F)cc5)cc4cc23)ccn1 [Compound 288]
Cc1cc(-c2n[nH]c3cc4c(cc23)CN([C@@H]2CCCN(Cc3sccc3F)C2)C(=O)N4)ccn1 [Compound 291]
Cc1ncc(-c2n[nH]c3cc4c(cc23)CN([C@@H]2CCCN(Cc3ccccc3)C2)C(=O)N4)cn1 [Compound 292]
Cc1ncc(-c2n[nH]c3cc4c(cc23)CN([C@@H]2CCCN(Cc3ccc(F)cc3F)C2)C(=O)N4)cn1 [Compound 293]
Cc1cc(-c2n[nH]c3cc4c(cc23)CN([C@@H]2CN(CC(F)(F)F)C[C@H]2c2ccccc2)C(=O)N4)ccn1 [Compound 304]
CC(c1ccccc1)c1cc2cc3c(-c4ccc(N5CCN(C)CC5)nc4)n[nH]c3cc2[nH]c1=O (stereo not drawn) [Compound 316]
CC(c1ccccc1)c1cc2cc3c(-c4ccnc(N5CCN(C)CC5)c4)n[nH]c3cc2[nH]c1=O (stereo not drawn) [Compound 318]
CC(c1ccccc1)c1cc2cc3c(-c4ccnc(N5CCOCC5)c4)n[nH]c3cc2[nH]c1=O (stereo not drawn) [Compound 325]
CC(c1ccccc1)c1cc2cc3c(-c4ccncc4)n[nH]c3cc2[nH]c1=O (stereo not drawn) [Compound 326]
Cc1cc(-c2n[nH]c3cc4[nH]c(=O)c(C5CCCN(Cc6ccccc6)C5)cc4cc23)ccn1 (stereo not drawn) [Compound 332]
CC(c1ccccc1)c1cc2cc3c(-c4cnn(C)c4)n[nH]c3cc2[nH]c1=O (stereo not drawn) [Compound 333]
CC(c1ccccc1)c1cc2cc3c(NC4CCOCC4)n[nH]c3cc2[nH]c1=O (stereo not drawn) [Compound 338]
Cc1cc(-c2n[nH]c3cc4c(cc23)CN([C@@H]2CN(CC(F)(F)F)C[C@H]2c2ccccc2)C(=O)N4)cc(C)n1 [Compound 339]
C[C@H](c1ccccc1)c1cc2cc3c(NC4CCOCC4)n[nH]c3cc2[nH]c1=O [Compound 357]
COc1ncc(-c2n[nH]c3cc4[nH]c(=O)c(C5CCCN(Cc6ccccc6)C5)cc4cc23)cn1 (stereo not drawn) [Compound 364]
